One assay deals with MCF7. Description: Anticancer activity against human MCF7 cells after 24 hrs by MTT assay. It is filed as functional, cell-based. As to conditions: MCF7, 24 h. Background: Formazan colour is commonly taken as a measure of viable cells.
The next assay deals with MDA-MB-231. Put plainly: Anticancer activity against human MDA-MB-231 cells after 24 hrs by MTT assay. The assay is classed as functional, cell-based. As to conditions: MDA-MB-231, 24 h.

Each structure is given as a SMILES string.

By IC50 is commonly meant the midpoint of a concentration-inhibition curve. Read a high IC50 as lower potency. In the case of `Cc1ccc(S(=O)(=O)N2Cc3ccccc3OC[C@@H]2Cc2ccc(O)cc2)cc1`, the IC50 in the assay on MCF7 turned out to be 20 µM; with MDA-MB-231, 30 µM.

The values are drawn from ChEMBL document CHEMBL4033627, “Quest for steroidomimetics: Amino acids derived steroidal and nonsteroidal architectures” (Eur J Med Chem, 2017).
